Measured values reported in US7056679B2, “Target specific screening and its use for identifying target binders” (Antyra, Inc., priority 2001, dated 2006).

Columns and labels:
E-tag antibody = assay: ELISA analysis of phage on antibody raised against ETAG (positive control); details: peptide binding to E-tag antibody; phage ELISA units read at 405 nm
Procedure: (§1) For analysis of individual target binders, colonies were picked and phage prepared as described above using helper phage, M13KO7. Ninety-six-well microtiter plates were coated with 500 ng/well of specific target protein, 500 ng/well lactate dehydrogenase (LDH) irrelevant or non-specific target, 500 ng/well of positive control antibody raised against ETAG, and negative control of non-fat milk powder-PBS 2% at 4° C. overnight. Plates were then blocked with 350 microliters/well PBS containing 2% non-fat milk for 1 hr at room temperature. One hundred microliters per well of phage from isolated clones were added and plates were incubated at room temperature for 2 hr after centrifuging samples for 20 minutes at 3500 rpm at 4° C. The phage solution was then removed, and the wells were washed three times with PBS at room temperature. Antibody raised against M13 conjugated to horseradish peroxidase (Pharmacia) was diluted 1:3000 in PBS-Tween and added to each well (100 μl/well). Incubation was for 1 hr at room temperature, followed by washing with PBS-(0.5%) Tween 3 times as described. Color was developed by addition of ABTS solution (100 μl/well; Boehringer, Indianapolis, Ind.). Plates were analyzed at 405 nm. A clone was considered “positive” if the A405 of the well was ≧2-fold over background.

[1] = test system: lactate dehydrogenase (LDH); assay: ELISA analysis of phage on LDH (irrelevant, non-specific target); assay type: binding; details: peptide binding to LDH polypeptide (non-specific binding); phage ELISA units read at 405 nm
Procedure: as §1

DGI-2 = target: T1, DGI-2 (Homo sapiens, UniProt Q15004); assay: ELISA analysis of phage on DGI-2 polypeptide (specific binding); details: for DGI-2 (OD): binding to DGI-2 polypeptide (specific binding), phage ELISA units read at 405 nm; for DGI-2/LDH (OD): ratio of specific binding to non-specific binding
T1 construct: encompassed the entire DGI-2 open reading frame (ORF); His-tag of vector pIVEX2.3-MCS (inferred from the vector and from the reverse primer lacking a stop codon); made in house; host or cells: cell-free in vitro translation (Rapid Translation System RTS, Roche; E. coli lysate)
T1 sequence (Q15004 1-111): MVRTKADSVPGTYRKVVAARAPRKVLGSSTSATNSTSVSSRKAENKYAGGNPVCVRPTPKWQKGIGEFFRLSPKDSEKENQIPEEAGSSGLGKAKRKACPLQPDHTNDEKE
Procedure: To verify that the selected target binders bound to DGI-2, Elisa assays were performed with recombinant DGI-2. DGI-2 was subcloned and expressed using conventional methods as described below.
Protein yields were satisfactory, but most of protein was found in inclusion bodies. Next, DGI-2 was expressed using an in vitro translation system (Rapid Translation System RTS 5000, Roche Diagnostics GmbH, Mannheim Germany). For this system, the DGI-2 ORF was cloned into the pIVEX2.3-MCS vector (Roche Diagnostics) using restriction sites Nde I and Hind III, which were added to DGI-2 by PCR. […] The primers used for the PCR amplification were as follows: […]
as §1

Substance	ETAG (OD) (E-tag antibody)	LDH (OD) [1] [OD]	DGI-2 (OD) (DGI-2)	DGI-2/LDH (OD) (DGI-2)
GEVDCVYALTHRFLSPQVQYHIHRPV (GEVDCVYALTHRFLSPQVQYHHRPV; DGI-2-20C-3-A12; listed as Escherichia coli)	8.1	0.9	0.9	1.0
RMYNCHYIERLYDWHAGRJLLQDPA (RMYNCHYIERLYDWHAGRILLQDPA; not fully specified; non-natural residue J; DGI-2-20C-4-E926; listed as Escherichia coli)	17.4	1.0	2.9	3.0
RCFQDGRMLALSPTYLIRRSVSPLVVGPLPTP (DGI-2-40F-3-A24; listed as Escherichia coli)	11.7	0.9	1.3	1.4
SVTISTSCRTGCPAGYLRRD (DGI-2-20F-PP-D2; listed as Escherichia coli)	30.8	0.7	2.2	3.1
RISVGQCGTSRCGGGRRGGG (DGI-2-20F-PP-D1; listed as Escherichia coli)	3.0	1.1	2.0	1.9
GWSDFVATGSWSGQVSAALN (DGI-2-20R-4-F120; listed as Escherichia coli)	16.5	1.1	13.6	12.2
LWLPCGLLVRPAQFYFYFSPLRHFLSSSVGSLSFPLSLLV (DGI-2-40F-3-B4; listed as Escherichia coli)	1.5	0.8	1.0	1.1
VLGADAGMIWFMDGCGIRCR (DGI-2-20R-4-E6; listed as Escherichia coli)	19.1	1.0	7.0	7.0
VRAVYSRDAYNEVGRWMRVGI (DGI-2-20F-PP-D9; listed as Escherichia coli)	9.0	1.0	2.9	2.9
YTPASILTGFQRGYEGAGNG (DGI-2-20R-4-G7; listed as Escherichia coli)	11.6	1.2	4.7	3.9
VCSGGKGTWLEIPDRVRSST (DGI-2-20F-PP-A22; listed as Escherichia coli)	44.1	1.0	3.3	3.1
QVGGMTQVGATVLSVVTGRGSCDGEDAWYPPGVTVGLGLC (DGI-2-40F-4-F97; listed as Escherichia coli)	14.0	1.0	6.7	6.4
SWACGLLWPGECGSQVARRG (DGI-2-20R-3-D127; listed as Escherichia coli)	15.4	1.0	6.7	6.4
FRVALLSVSAGPCEGSGNT (DGI-2-20F-PP-H7; listed as Escherichia coli)	3.7	0.8	1.8	2.1
WEVGQVEKFSRGVGGWWPTG [DGI-2-20R-3-D3]	16.8	1.0	8.3	8.3
RTLFINGGCCGKGSGGGRPL (DGI-2-20F-PP-G1; listed as Escherichia coli)	21.8	1.0	1.4	1.4
LHFGSVMGWRPPGSLWSRPFGQVHPRSWSGS (DGI-2-40F-3-D11; listed as Escherichia coli)	10.5	1.3	3.8	2.9
FSSVLGLLDRRGVPVVVGED (DGI-2-20F-3-C3; listed as Escherichia coli)	11.6	0.9	1.1	1.1

Substance	ETAG (OD) (E-tag antibody)	LDH (OD) [1] [OD]	DGI-2 (OD) (DGI-2)	DGI-2/LDH (OD) (DGI-2)
LVIQCSASVVACDLYWNYVGCLAAG (DGI-2-20C-3-D12; listed as Escherichia coli)	3.6	1.0	1.1	1.1
MGSLGPFGNTNSLASGIGSVRNRPLLPLHGSP [DGI-2-40F-3-D72]	14.0	1.1	3.1	2.8
LQIVRPAGMTKMPGQVGYYIG (LQIVRPAGWKMPGQVGYYIG; DGI-2-20R-3-A9; listed as Escherichia coli)	14.3	1.0	3.4	3.4
GGSLPVKSGQLVTCCTSKGG (DGI-2-20F-PP-F5; listed as Escherichia coli)	16.3	0.9	2.3	2.5
VVGYAQGDGLEGGLGSSRDGS (DGI-2-20F-PP-D8; listed as Escherichia coli)	2.6	1.1	2.3	2.2
HGTRLRGVDYVMTWAGWQGYSSRKHVQQAVAGSSPGSDEL (DGI-2-40F-3-B1; listed as Escherichia coli)	6.3	0.7	0.8	1.2
QMSRVAFSPGESWRRWVEGV (DGI-2-20R-3-A2; listed as Escherichia coli)	14.2	1.0	7.5	7.5
LTWGPQFGSLQVYSRHRGLP (DGI-2-20R-4-E4; listed as Escherichia coli)	18.1	1.2	1.6	1.3
RFWSVSYQGGRVMCREWGYCLPI (DGI-2-40F-3-C92; listed as Escherichia coli)	9.8	0.8	2.1	2.6
DSEA*RVWYSGFLRRLGHMC (DSEARVWYSGFLRRLGHMC; DGI-2-20F-PP-F7; listed as Escherichia coli)	3.3	1.0	2.1	2.1
LVIGQRSFLSACSLFDGFCV (DGI-2-20R-4-H814; listed as Escherichia coli)	13.5	1.1	9.5	9.0
MAVLPAARDFGGVVQGGVSG (DGI-2-20F-3-C2; listed as Escherichia coli)	11.5	1.0	1.3	1.3
FGSTAYADMLSQFRKFAMNIS (DGI-2-20F-PP-E1; listed as Escherichia coli)	33.4	1.0	1.8	1.9
PVYRVAMCRISVGCSAGAWF (DGI-2-20F-PP-C12; listed as Escherichia coli)	36.4	0.9	2.5	2.9
GSTRLRVTVRFCSETGTPGC (DGI-2-20F-PP-G6; listed as Escherichia coli)	36.1	1.1	2.7	2.5
SRGMAEAQFSAWPVLAVFPL (DGI-2-20F-PP-H8; listed as Escherichia coli)	32.4	0.9	1.6	1.9
DYKGRTMTSPIMSALPVYDRLHGIGSRGQNMD (DYKGRTMTSPIMSALPVYDRLHGAIGSRGQNMD; DGI-2-20C-3-B3; listed as Escherichia coli)	7.7	0.9	0.8	0.9
